From US20070149588A1, “6-(2,3,6-Trifluorophenyl)triazolopyrimidines, their preparation and their use for controlling harmful fungi, and compositions comprising these compounds” (priority 2003, published 2007)

Tested on: Botrytis cinerea
Experiment: Activity against gray mold on bell-pepper leaves caused by Botrytis cinerea, protective application
Format: in vivo
Details: 250 ppm, protective spray on bell-pepper seedlings cv. Neusiedler Ideal Elite, inoculated next day, assessed visually after 5 days; untreated plants 90% infected
Procedure: The active compounds were prepared as a stock solution with 25 mg of active compound which was made up to 10 ml using a mixture of acetone and/or DMSO and the emulsifier Uniperol® EL (wetting agent having emulsifying and dispersing action based on ethoxylated alkylphenols) in a volume ratio of solvent/emulsifier of 99 to 1. The mixture was then made up with water to 100 ml. This stock solution was diluted with the solvent/emulsifier/water mixture described to the concentration of active compound stated below. Bell-pepper seedlings of the cultivar “Neusiedler Ideal Elite” were, after 2 to 3 leaves were well developed, sprayed to runoff point with an aqueous suspension having the concentration of active compound stated below. The next day, the treated plants inoculated with a spore suspension of Botrytis cinerea, which contained 1.7×10^6 spores/ml in a 2% aqueous biomalt solution. The test plants were then placed in a dark climatized chamber at 22 to 24° C. and high atmospheric humidity. After 5 days, the extent of the fungal infection on the leaves could be determined visually in %.

SMILES	fungal infection on the leaves
CC1CCCCN1c1c(-c2c(F)ccc(F)c2F)c(C#N)nc2ncnn12 (stereo not drawn) [I-1, 5-cyano-6-(2,3,6-trifluorophenyl)-7-(2-methylpiperidinyl)-1,2,4-triazolo[1,5a]pyrimidine]	no infection
COc1nc2ncnn2c(NC2CCCC2)c1-c1c(F)ccc(F)c1F [I-2, 5-methoxy-6-(2,3,6-trifluorophenyl)-7-cyclopentylamino-1,2,4-triazolo[1,5a]pyrimidine]	no infection
Cc1nc2ncnn2c(N2CCCCC2C)c1-c1c(F)ccc(F)c1F (stereo not drawn) [I-3, 5-methyl-6-(2,3,6-trifluorophenyl)-7-(2-methylpiperidinyl)-1,2,4-triazolo[1,5a]pyrimidine]	no infection
